Results: patent US20260193644A1, “Compositions and Methods For Modulation of Tumor Suppressors and Oncogenes” (FLAGSHIP PIONEERING INNOVATIONS VII, LLC, priority 2022, published 2026)
Several values for one entry are separate records, joined by “and”; a condition that tells them apart may be missing. Equal entries are not always repeated.

B1: SEQ ID NO: 34508: ORF peptide; sequence only in Sequence Listing (peptide, listed as Homo sapiens)
chain: LPLYPLHRKWAGSGLLVFAAPAARAQQGPGEMATVPAPGRTGERALPPPHVSARASFLGSTLWM
B2: SEQ ID NO: 26298: peptide hit of Table E; sequence only in Sequence Listing (peptide, listed as Homo sapiens)
chain: VQSGKCESSVLGYSATCLPDMGRWRVSSVESWPFASTGGKLAIATAGTGTQAAPRPFLIRPPDSWALALALM

Key:
U2OS cells = assay: WST-1 proliferation assay on U2OS cells treated with peptide; assay type: cell-based
HCT116 cells = assay: WST-1 proliferation assay on HCT116 cells treated with peptide; assay type: cell-based
Description: Proliferation: HCT-116 cells were plated in 96 well plate (5,000 cells/well) grown in standard media supplemented with 10% FBS. After 48 hours incubation at 37° C. (5% CO2), the cells are subjected to the WST-1 ([…]) assay. The WST-1 assay (Sigma) is a measure of the metabolic activity (i.e. proliferative rate) of cells. […]

[1] = Low sera (continued), 0.1 uM, head 2 SD
[2] = Low sera (continued), 0.1 uM, head 4 SD
[3] = Low sera (continued), 0.5 uM, head 3 SD

Molecule | proliferation hit score, High sera (U2OS cells; 1 uM, head 5 SD) [SD] | proliferation hit score, High sera (U2OS cells; 10 uM, head 8 SD) [SD] | proliferation hit score, Low sera (U2OS cells; [1]) [SD] | proliferation hit score, Low sera (U2OS cells; [2]) [SD] | proliferation hit score, Low sera (U2OS cells; Low sera, 1 uM, head 5 SD) [SD] | proliferation hit score, Low sera (U2OS cells; Low sera, 10 uM, head 6 SD) [SD] | proliferation hit score, High sera (HCT116 cells; 0.1 uM, head 3 SD) [SD] | proliferation hit score, High sera (HCT116 cells; 1 uM, head 2 SD) [SD] | proliferation hit score, High sera (HCT116 cells; 10 uM, head 4 SD) [SD] | proliferation hit score, Low sera (HCT116 cells; Low sera, 1 uM, head 3 SD) [SD] | proliferation hit score, Low sera (HCT116 cells; Low sera, 10 uM, head 3 SD) [SD] | proliferation hit score, High sera (U2OS cells; 5 uM, head 5 SD) [SD] | proliferation hit score, Low sera (U2OS cells; [3]) | proliferation hit score, Low sera (U2OS cells; Low sera, 5 uM, head 2 SD) [SD] | proliferation hit score, High sera (HCT116 cells; 0.5 uM, head 3 SD) [SD] | proliferation hit score, High sera (HCT116 cells; 5 uM, head 3 sd) [SD] | proliferation hit score, Low sera (HCT116 cells; [3]) [SD] | proliferation hit score, Low sera (HCT116 cells; Low sera, 5 uM, head 2 SD) [SD]
SEQ ID NO: 33681: peptide hit of Table E; sequence only in Sequence Listing (IMAIFFFFCIIVSSLPTAELGTENACSTCLLNE; listed as Homo sapiens) | −0.8283 | −10.57 | −1.01 | 4.988 | 9.376 | −6.861 | 0.9926 | −3.672 | −8.606 | 0.1255 | −2.584 | – | – | – | – | – | – | –
SEQ ID NO: 38017: peptide hit of Table E; sequence only in Sequence Listing (GVFVVARDRRRRELRTGAFSLLLGVVALLPLCGKRIQALPRACGCGGPEVLVVPR; listed as Homo sapiens) | – | – | – | – | – | – | – | – | – | – | – | −3.812 | 2.343 SD | −2.719 | −0.9491 | −1.457 | −0.1996 | −1.525
SEQ ID NO: 33599: ORF peptide; sequence only in Sequence Listing (MCLGLLFCFMPLSLVVSSEEARFKVAADLCGFATGNSW; listed as Homo sapiens) | −2.566 | −14.68 | −0.8886 | 2.01 | 4.323 | −8.391 | 0.5427 | −0.6105 | −4.843 | −0.9914 | −5.29 | – | – | – | – | – | – | –
SEQ ID NO: 38081: peptide hit of Table E; sequence only in Sequence Listing (MRRAWRPRLLGAALVAH; listed as Homo sapiens) | −15.19 | −3.67 | −3.47 | 2.082 | 1.521 | −2.322 | −0.4952 | −0.4884 | −0.5065 | −3.589 | −2.477 | – | – | – | – | – | – | –
SEQ ID NO: 34047: peptide hit of Table E; sequence only in Sequence Listing (MHINYFFFLKLFLSLQNLILALDLRRESLTRDETQ; listed as Homo sapiens) | – | – | – | – | – | – | – | – | – | – | – | −6.825 | 2.331 SD | −5.958 | 0.5338 | 0.008734 | 1.561 | 0.3241
SEQ ID NO: 29230: peptide hit of Table E; sequence only in Sequence Listing (REQVPGMGGKSWLFFYSLVFCALLPLPRREDPFKLF; listed as Homo sapiens) | −5.771 | −5.758 | −2.296 | 2.01 | 3.875 | 2.682 | 2.159 | −0.4364 | 0.2713 | −1.09 | −2.162 | – | – | – | – | – | – | –
SEQ ID NO: 38076: ORF peptide; sequence only in Sequence Listing (MHLLLLPVIFLPWVLPQHKHTSATPGFSSEKQFMSETENQTANVKFY; listed as Homo sapiens) | – | – | – | – | – | – | – | – | – | – | – | −0.8798 | 3.033 SD | 0.2974 | −0.8521 | −1.476 | 0.1011 | −0.293
SEQ ID NO: 38073: peptide hit of Table E; sequence only in Sequence Listing (MTVSLFLLLATSQSQDGCCDSGSCPNSRQQEGHGAAPASSCLPIP; listed as Homo sapiens) | – | – | – | – | – | – | – | – | – | – | – | −4.132 | 3.652 SD | −1.571 | 0.3814 | −0.2232 | 0.586 | 0.1141
SEQ ID NO: 28759: peptide hit of Table E; sequence only in Sequence Listing (MKKSCRWVFFLITKSLFKETVA; listed as Homo sapiens) | – | – | – | – | – | – | – | – | – | – | – | 1.2 | −1.934 SD | −4.99 | −1.466 | −1.78 | 0.5212 | −3.329
B1 | −1.711 | −12.11 | 1.335 | 3.475 | 4.275 | −11.74 | −5.097 | −2.867 | −5.856 | −1.6 | −3.628 | −0.8798 | 5.043 SD | 1.344 | 0.2038 | −0.02329 | 0.9567 | 1.932
B2 | – | – | – | – | – | – | – | – | – | – | – | – | 2.391 SD and 2.95 SD | – | – | – | – | –
